Target: ALK5 (Homo sapiens (Human), UniProt P36897)
Assay: Evaluation experiment of ALK5 enzyme activity inhibition IC50 (ADP-Glo kinase assay)
Assay type: biochemical
Settings: not given
Description: 1. Preparation of a 1× kinase buffer: 40 mM Tris (pH 7.5), 20 mM MgCl2, 0.10% BSA, 1 mM DTT.
2. Compound preparation: The final detection concentration of the compound was 10 μM, which was prepared to a 100-fold concentration, i.e., 1 mM. 100 μL of the 100-fold compound was added in the second well of the 384-well plate, and 60 μL of 100% DMSO was added to the other wells. […] 50 nL of the compound was transferred to the reaction plate with echo.
3. Kinase reaction: The kinase was added to a 1× kinase buffer to form a 2× enzyme solution. […] The polypeptide TGFbR1 (purchased from Signal Chem, catalog number T36-58) and ATP were added to a 1× kinase buffer to form a 2× substrate solution. The final concentration of the substrate solution was peptide TGFbR1 0.1 mg/mL, ATP 7 μM. 2.5 μL of the 2× enzyme solution was added to the 384-well reaction plate (there was already 50 nL of 100% DMSO dissolved compound), and a 1× kinase buffer was added to a negative control well. The reaction solution was incubated at room temperature for 10 minutes. 2.5 μL of 2× substrate solution was added to the 384-well reaction plate. The 384-well plate was covered and incubated at 30° C. for 1 hour. ADP-Glo reagent (purchased from Promege, catalog number v9102) was equilibrated to room temperature. 5 μL of ADP-Glo reagent was transferred to the reaction well of the 384-well plate to stop the reaction.
4. Detection of reaction results: 10 μL of kinase detection reagent was transferred to each well, shaken for 1 minute, and let stand at room temperature for 30 minutes. The sample luminescence value was read at Synegy.
5. Curve fitting: The data of the luminescence reading were copied from the Synegy program. The value of the luminescence reading was converted to inhibition percentage by a formula (inhibition percentage=(max−sample RLU)/(max−min)×100, where “min” was a fluorescence reading for a control sample without enzyme; “max” was a fluorescence reading for a sample with DMSO as a control). The data were imported into MS Excel and GraphPad Prism was used for curve fitting. IC50 value was calculated.

ALK5, sequence (P36897 34-503): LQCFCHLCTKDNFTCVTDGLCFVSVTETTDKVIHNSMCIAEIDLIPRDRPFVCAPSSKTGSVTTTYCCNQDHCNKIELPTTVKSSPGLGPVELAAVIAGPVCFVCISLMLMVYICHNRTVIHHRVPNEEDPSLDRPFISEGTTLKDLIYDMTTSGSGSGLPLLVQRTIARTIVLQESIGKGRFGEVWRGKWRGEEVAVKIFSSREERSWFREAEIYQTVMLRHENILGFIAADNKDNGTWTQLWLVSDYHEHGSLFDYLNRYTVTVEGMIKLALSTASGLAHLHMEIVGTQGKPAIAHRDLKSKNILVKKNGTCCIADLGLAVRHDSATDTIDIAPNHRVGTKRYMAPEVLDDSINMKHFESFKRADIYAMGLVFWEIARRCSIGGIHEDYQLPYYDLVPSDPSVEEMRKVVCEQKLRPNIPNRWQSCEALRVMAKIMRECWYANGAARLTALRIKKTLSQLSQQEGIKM

| Structure (SMILES) | IC50 [µM] |
| --- | --- |
| NC(=O)c1cnc2ccc(/C=C\c3cccc(C(F)(F)F)n3)cn12 [Compound 11] | 0.01 |

Same assay, conditions: ALK5 25 nM, peptide TGFbR1 0.1 mg/mL, ATP 7 μM, 30° C. 1 hour, ADP-Glo luminescence

| Structure (SMILES) | IC50 [µM] |
| --- | --- |
| Cc1cccc(/C=C(/C(=O)OC(C)(C)C)c2ccc3ncc(C(N)=O)n3c2)n1 [Compound 17a] | 0.0066 |
| Cc1cccc(/C=C\c2ccn3ncc(C(N)=O)c3c2)n1 [Compound 13] | 0.0051 |
| Cc1cccc(C2=C(c3ccc4ncc(C(N)=O)n4c3)CCCC2)n1 [Compound 16] | 0.048 |
| Cc1cccc(/C=C\c2ccc3ncc(C(=O)NC4CC4)n3c2)n1 [Compound 4] | 0.017 |
| Cc1cccc(/C=C\c2ccc3ncc(C(N)=O)nc3c2)n1 [Compound 14] | 0.078 |
| Cc1cccc(/C=C(/C(=O)O)c2ccc3ncc(C(N)=O)n3c2)n1 [Compound 17] | 0.616 |
| Cc1cccc(/C=C(/C(=O)N(C)C)c2ccc3ncc(C(N)=O)n3c2)n1 [Compound 20] | 0.034 |

Reference: patent US11447490B2, “Aromatic heterocyclic substituted olefin compound, preparation method for same, pharmaceutical composition of same, and applications thereof” (SHANGHAI YINGLI PHARMACEUTICAL CO., LTD, priority 2018, dated 2022)
